“Also recorded” adds a separate entry of the source. Non-standard residues stand in square brackets, D forms with d. Residues, ends and D or L forms follow the SMILES beside them. *: point of attachment. Nle = CCCC[C@H](N)C(=O)O; Cbz = O=C(OCc1ccccc1)*
Key:
CHO-α-tubulin-YFP cells = assay: α-tubulin-YFP localization in CHO-α-tubulin-YFP cells (fluorescence imaging); format: cell-based, Chinese hamster; details: for accumulation of α-tubulin-YFP at the centrosomes: 5 hours; for accumulation of tubulin-YFP at the centrosomes: 24 hours; for accumulation of tubulin in the centrosomes (overall statement): CHO-tubulin-YFP cells, concentration and time not given; for accumulation of tubulin at the centrosomes versus in the nucleus (overall statement): cells treated, concentration not given
Source text: Wild-type Chinese Hamster Ovary cells (WT CHO) cells were maintained in Ham's F-12 medium supplemented with 10% fetal bovine serum (FBS; HyClone, Logan, Utah). Cells of low density (˜20%) growing on 2-well chambered cover-slips (Labtek (Campbell, Calif.) or Fisher Scientific) were transfected with a mammalian expression vector encoding α-tubulin-YFP (Clontech, Palo Alto, Calif.) with the use of FuGENE 6 (Roche Molecular Biochemicals, Indianapolis, Ind.), according to the manufacturer's instructions. Twenty-four hours after transfection, the cells were cultured in 400 μg/ml G418 (Invitrogen, Carlsbad, Calif.)-containing selection medium for 2 weeks. Living cells were examined using a fluorescent microscope for α-tubulin-YFP expression. Cells in single colonies containing microtubules labeled with α-tubulin-YFP were lifted and expanded in G418-containing medium. Expression of α-tubulin-YFP was confirmed by the presence of the tubulin-YFP labeled microtubule pattern identical to immunostained microtubule pattern of non-transfected cells, as well as by subjecting the cells to Western blot analysis using an anti-GFP antibody (Roche Molecular Biochemicals, Basel, Switzerland) and confirming the correct mass of the α-tubulin-YFP chimera protein. Expressed tubulin-YFP was detected as a single band in Western blots. The tubulin-YFP expressing cell lines (referred as CHO-α-tubulin-YFP cells) were used in the studies.
CHO-α-tubulin-YFP cells were cultured in 2-well chambered cover-slips (Labtek (Campbell, Calif.) or Fisher Scientific) 24 hours before treatment. For comparison of the centrosomal effects of treatment with Compound 1, Compound 1+Taxol, and Taxol, CHO-α-tubulin-YFP cells were treated with Compound 1, Compound 1+Taxol, Taxol, or equivalent concentrations of DMSO-containing media for various time periods before imaging. For comparison of the effects of Compound 1 and known proteasome inhibitors on centrosomes, the nucleus, and perinuclear regions, CHO-α-tubulin-YFP cells were treated with Compound 1, ALLN (Calbiochem, San Diego, Calif.), lactacystin (Calbiochem, San Diego, Calif.) or MG132 (Calbiochem, San Diego, Calif.), and imaged at various time points from 3 hours to 24 hours after treatment.
Tubulin-YFP fluorescence in living cells or fixed cells was captured using a standard filter for FITC and objectives of 20× or 60× magnification on a Nikon TE300 microscope with a Leica DC50 color digital camera (Leica, Bannockburn, Ill.) or a CoolSnap HQ Monochrome CCD camera (Photonetrics, Tucson, Ariz.). The Leica DC50 and CoolSnapHQ cameras were controlled with Leica DC50 software and MetaVue/MetaMorph software, respectively (Universal Imaging Corp, Downingtown, Pa.).
CHO-α-tubulin-YFP cells were cultured in 2-well chambered cover-slips (Labtek (Campbell, Calif.) or Fisher Scientific) 24 hours before treatment. For comparison of effects on the centrosome, nucleus, and perinuclear regions, cells were treated with Compound 1 and known proteasome inhibitors including ALLN, MG132, Lactacystin, MG115, clasto-Lactacystin β-Lactone (cLβL), and Epoxomicin (10 μM final concentration for all except ALLN, which was used at 100 μM final concentration) (proteasome inhibitors were from Calbiochem, San Diego, Calif.) and imaged at various time points up to 24 hours during treatment.
Tubulin-YFP fluorescence in living cells or fixed cells was captured using a standard filter for FITC and objectives of 20× or 60× magnification on the Nikon TE300 microscope/digital imaging system.

[1] = target: T1, bovine red blood cell 20S proteasome (Bos taurus, UniProt Q32KL2); assay: 20S Proteasome Assay (in vitro, Suc-Leu-Val-Tyr-AMC); format: biochemical; details: isolated 20S proteasome
T1 construct: bovine red blood cell 20S proteasome; purchased Calbiochem; host or cells: purified from bovine red blood cells
Method: 190 μl of reaction buffer (500 mM HEPES, 10 nM EDTA, pH 7.6), containing 0.03% SDS was pre-incubated for 5 minutes at 37° C. in the presence of 0.2 μg of bovine red blood cell 20S proteasome (Calbiochem, San Diego, Calif.) for temperature equilibration. Subsequently, inhibitors or Compound 1 were added to the reaction mixture at a final DMSO concentration of 0.5%. The reaction was initiated by adding 10 μl of the peptide-AMC substrate (Calbiochem, San Diego, Calif.) to each well. The emitted fluorescence was then measured every third minute at 37° C. for 90 minutes by a fluorescence plate reader (FlexStation II, Molecular Devices, Sunnyvale, Calif.) at 460 nm (λex360 nm) wavelength.
The buffers and reagents for the assay were purchased from Calbiochem (20S Proteasome Assay Kit; Calbiochem, San Diego, Calif.). The principle of the assay is that the release of free AMC (7-Amino-4-methylcoumarin) following degradation of the substrate results in a fluorescent signal that is a measure of proteasome activity. The quantitative analysis of 20S proteasome activity was assayed as described.

[2] = tested on: MDA-435 breast cancer cells; assay: Multi-ubiquitin Western blotting in MDA-435 cells; format: cell-based; details: for increase of ubiquitinated proteins of the cell lysates: 500 nM
Method: Louis, Mo.) immediately before use, on ice for 1 hour. After scraping, the lysates were cleared by centrifugation at 13,000 RPM for 10 minutes at 4° C. Protein content was determined using a Bradford assay and bovine serum albumin as a standard (Bio-Rad Laboratories, Hercules, Calif.). Samples were solubilized by boiling in SDS sample buffer and subjected to SDS-PAGE. The proteins were subsequently transferred to a PVDF membrane (Bio-Rad, Hercules, Calif.). […] The alkaline phosphatase-conjugated secondary antibodies (Invitrogen, Carlsbad, Calif.) were diluted in blocking buffer and incubated with the blot for 1 hour at room temperature. The secondary antibodies were detected by the Western Breeze Chemiluminescent Kit (Invitrogen, Carlsbad, Calif.) and imaged using a Kodak 440 Image Station. Proteins targeted for degradation by the ubiquitin-dependent proteolytic pathway are tagged with multi-ubiquitin molecules. […] In this assay, accumulation of multi-ubiquitinated proteins in the cells is indicative of the impairment of proteasome activity.

Hsp70 = Hsp70 Western blotting in MDA-435 cells; format: cell-based; details: 0.5 μM; for induction of Hsp70 expression: 6 and 24 hours; for percentage change in Hsp70 expression relative to DMSO control: normalized to background and GAPDH
Method: Calculations of the percentage changes were made by using the automated band analysis tools of the Kodak 1D (v.3.6.3) program. Band intensities were normalized to background and GAPDH.
MDA-435 breast cancer cells were grown in 100 mm plastic-tissue culture dishes and treated for 6 and 24 hours with 0.5 μM Taxol, Compound 1, Taxol+Compound 1, MG132, ALLN, or DMSO. After treatment, cells were washed in PBS and cell lysates were prepared by adding 100 μL of lysis buffer, which contained 20 mM Tris-HCl (pH 7.5), 150 mM NaCl, 1 mM Na2EDTA, 1 mM EGTA, 1% Triton, 2.5 mM sodium pyrophosphate, 1 mM β-glycerophosphate, 1 mM Na3VO4 and 1 μg/ml leupeptin (Cell Signaling Technology, Beverly, Mass.) supplemented with 1 mM PMSF (Sigma, St. Louis, Mo.) immediately before use, on ice for 1 hour. After scraping, the lysates were cleared by centrifugation at 13,000 RPM for 10 minutes at 4° C. Protein content was determined using a Bradford assay and bovine serum albumin as a standard (Bio-Rad Laboratories, Hercules, Calif.). Samples were solubilized by boiling in SDS sample buffer and subjected to SDS-PAGE. The proteins were subsequently transferred to a PVDF membrane (Bio-Rad, Hercules, Calif.). After blocking with 5% nonfat milk in TBS for 1 hour, the blots were incubated with a mouse monoclonal anti-Hsp70 antibody, which is specific for the inducible form of Hsp70 (Clone C92F3A-5, 1:1000 dilution, Stressgen Biotechnologies Corp., Victoria, B.C., Canada) or a rabbit polyclonal anti-GAPDH antibody (1:2000 dilution, Abcam, Cambridge, Mass.) for 2 hours at room temperature. The horseradish-peroxidase-conjugated secondary antibodies, anti-mouse horse radish peroxidase, (1:2000, Bio-Rad, Hercules, Calif.) and goat anti-rabbit polyclonal horse radish peroxidase (1:2000, Abcam, Cambridge, Mass.)) were diluted in blocking buffer and incubated with the blot for 1 hour at room temperature. The secondary antibodies were detected by enhanced chemiluminescence (ECL, Amersham Biosciences, Piscataway, N.J.) and imaged using a Kodak 440 Image Station.

26S proteasome = assay: Proteasome-sensor cells (HEK-293, GFP chimera), fluorescence imaging; format: cell-based; details: HEK-293, 100 nM, 24 hours
Source text: Specifically, the proteasome-sensor cells are HEK-293 cells stably transfected with a vector (proteasome-sensor vector) that encodes naturally-occurring reef coral Zoanthus sp. green fluorescent protein (GFP) fused to a specific degradation motif that targets the fusion protein for removal by the 26S proteasome. The background fluorescence observed in normal cells with active proteasomes is low. When proteasomes are inhibited, the fluorescent protein quickly accumulates. […] Millennium Pharmaceuticals, Inc., Cambridge, Mass.). […] Velcade (Millennium Pharmaceuticals Inc.) was used as a positive control in this assay (at 5 nM, 50 nM, 500 nM or 5 μM). Velcade stock solution was prepared according to the manufacturer's instructions. GFP fluorescence of the cells was imaged at various time points using a standard filter for FITC with the Nikon TE300 microscope/digital imaging system described herein.

CHO cells = assay: Cell morphology, simultaneous time-lapse imaging of CHO cells; format: cell-based, Chinese hamster
Method: CV-1 cells and CHO cells were previously cultured in 2-well chambered cover-slips for 48 hours and incubated in 15 mM HEPES buffer-containing Ham's F-12/DMEM medium with different compounds. The cells were imaged using phase contrast settings with the Nikon TE300 microscope/digital imaging system. The cells were imaged ‘simultaneously’ under control of MetaVue software by capturing frames for cells from different conditions at the same time period using a motorized automated XYZ stage.
To track the effect of Compound 1 on live cells, non-transfected CV-1 cells with were treated with 500 nM Compound 1 and phase contrast time-lapse images were taken every 10 seconds. […] A very low concentration of Taxol (10 nM) was used.

Row | Structure (SMILES) | accumulation of α-tubulin-YFP at the centrosomes (CHO-α-tubulin-YFP cells; CHO cells, 10 μM) | accumulation of α-tubulin-YFP in the nucleus (CHO-α-tubulin-YFP cells; CHO cells, 10 μM, 8 hours post-treatment) | accumulation of tubulin-YFP at the centrosomes (CHO-α-tubulin-YFP cells; CHO cells, 10 μM) | accumulation of tubulin in the centrosomes (overall statement) (CHO-α-tubulin-YFP cells) | accumulation of tubulin at the centrosomes versus in the nucleus (overall statement) (CHO-α-tubulin-YFP cells) | proteasome inhibitory activity in vitro (overall statement) [1] | proteasome activity in vitro ([1]; 5 nM) | increase of ubiquitinated proteins of the cell lysates ([2]; 6 hours of treatment in cell culture) | increase of ubiquitinated proteins of the cell lysates ([2]; 24 hours of treatment in cell culture) | accumulation of multi-ubiquitinated proteins ([2]; MDA-435 cells, 0.5 μM, 6 and 24 hours) | induction of Hsp70 expression (Hsp70) | percentage change in Hsp70 expression relative to DMSO control (Hsp70; 6 hours of treatment) [%] | percentage change in Hsp70 expression relative to DMSO control (Hsp70; 24 hours of treatment) [%] | accumulation of α-tubulin-YFP at the centrosomes (CHO-α-tubulin-YFP cells; CHO cells, 100 μM) | accumulation of YFP-tubulin in the nucleus (CHO-α-tubulin-YFP cells; CHO cells, 100 μM, 8 hours post-treatment) | accumulation of tubulin-YFP at the centrosomes (CHO-α-tubulin-YFP cells; CHO cells, 100 μM) | accumulation of tubulin-YFP at the centrosomes (CHO-α-tubulin-YFP cells; CHO cells, 0.1 μM) | accumulation of proteasome-sensor protein in cells (26S proteasome) | effect on cell morphology (CHO cells; CHO cells, 10 nM, up to 210 minutes) | cell death (CHO cells; cells, after a certain period of treatment)
1 | CC(C)C[C@@H](C=O)NC(=O)[C@H](CC(C)C)NC(=O)[C@H](CC(C)C)NC(=O)OCc1ccccc1 [MG132] (Cbz-Leu-Leu-Leu-aldehyde) | accumulation of α-tubulin-YFP at the centrosomes and perinuclear regions | accumulation of α-tubulin-YFP in the nucleus; also recorded: caused the accumulation of YFP-tubulin in the nucleus | accumulation of tubulin-YFP at the centrosomes | caused accumulation of tubulin-YFP at the centrosomes and in the perinuclear region | both accumulation of tubulin at the centrosomes and in the nucleus | exhibited proteasome inhibitory activity | detectable decrease in proteasome activity | 212.58 | 357.82 | caused similar accumulation of multi-ubiquitinated proteins | not as potent an inducer as Compound 1; also recorded: also induced Hsp70 expression after 6 and 24 hours of treatment, but did so less potently than Compound 1 or Compound 1+Taxol | 472 | 3016 |  |  |  |  |  |  | 
2 | CCCC[C@@H](C=O)NC(=O)[C@H](CC(C)C)NC(=O)[C@H](CC(C)C)NC(C)=O [ALLN] (Ac-Leu-Leu-[Nle]-aldehyde) |  |  |  | caused accumulation of tubulin-YFP at the centrosomes and in the perinuclear region | both accumulation of tubulin at the centrosomes and in the nucleus | exhibited proteasome inhibitory activity |  |  |  |  | unable to induce expression of Hsp70; also recorded: not capable of inducing Hsp70 expression | 82 | 137 | accumulation of α-tubulin-YFP at the centrosomes and perinuclear regions | caused the accumulation of YFP-tubulin in the nucleus | accumulation of tubulin-YFP at the centrosomes |  |  |  | 
3 | CC(=O)O[C@H]1C(=O)[C@@]2(C)[C@H]([C@H](OC(=O)c3ccccc3)[C@]3(O)C[C@H](OC(=O)[C@H](O)[C@@H](NC(=O)c4ccccc4)c4ccccc4)C(C)=C1C3(C)C)[C@]1(OC(C)=O)CO[C@@H]1C[C@@H]2O [Taxol] |  |  |  | no such effect |  |  |  |  |  |  |  | 86 | 556 |  |  |  | lack of accumulation of tubulin-YFP at the centrosomes | lack of proteasome-sensor protein in cells | did not cause significant cell morphological changes | cause cell death after a certain period of treatment
